For 22 molecules, EC50 results are on record in patent US9428507B2, “Compounds for the treatment of malaria” (The Broad Institute, Inc., priority 2013, dated 2016).

The test system of this assay is Dd2 strain of P. falciparum. Description: Activity against the Dd2 strain of P. falciparum (SYBR Green I, 72-h incubation). Type of assay: cell-based. The settings on record: Plasmodium falciparum, DD2, 72 h, read-out: EC^50 Dd2. The protocol: The Dd2 strain of P. falciparum was cultured in complete medium (RPMI with L-glutamine, 4.3% heat-inactivated O-positive human serum, 2.08 mg/ml albumax, 0.013 mg/ml hypoxanthine, 1.17 mg/ml glucose, 0.18% NaHCO3, 0.031 M Hepes, 2.60 mM NaOH, and 0.043 mg/ml gentamicin) until the parasitemia reached 3-8%. Parasitemia was determined by checking at least 500 red blood cells from a Giemsa-stained blood smear. The Dd2 cultures along with tested O-positive red blood cells are centrifuged at room temperature at 2,000 rpm for 5 min using an Eppendorf centrifuge 581 OR with an A-4-81 rotor. The medium was aspirated off. For the compound screening, a parasite dilution at a 1% parasitemia and 1.0% hematocrit was created with screening medium (RPMI with L-glutamine, 4.16 mg/ml albumax II, 0.013 mg/ml hypoxanthine, 1.73 mg/ml glucose, 0.18% NaHCO3, 0.031M Hepes, 2.60 mM NaOH, and 0.043 mg/ml gentamicin). The suspension was gassed with 93% nitrogen, 4% carbon dioxide, and 3% oxygen and placed at 37° C. until needed. Using a liquid dispenser, 20 μl of screening medium was dispensed into 384-well, black, clear-bottom plates. With a PinTool, 100 nl of compounds dissolved in DMSO was transferred into the assay plates along with control compound (mefloquine). Next, 30 μl of the parasite suspension in screening medium was then dispensed into the assay plates such that the final parasitemia was 1%, and the final hematocrit was 1.0%. Final concentration of DMSO was 0.125%. Mefloquine at a final concentration of 20 μM and DMSO at a final concentration of 0.125% were used within the assay plates to serve as background and baseline controls, respectively. The assay plates were transferred to incubators (93% nitrogen, 4% carbon dioxide, and 3% oxygen during the 72-h incubation at 37° C.). Ten microliters of detection reagent consisting of 1 OX SYBR Green I (Invitrogen; supplied in 10,000× concentration) in lysis buffer (20 mM Tris-HCl, 5 mM EDTA, 0.16% Saponin wt/vol, 1.6% Triton X vol/vol) was dispensed into the assay plates. For optimal staining, the assay plates were left at room temperature for 24 h in the dark. The assay plates were read by using an Envision (PerkinElmer) reader, with 505 dichroic mirrors with 485-nm excitation and 530-nm emission settings, and the plate reads were from the bottom.

Consider `COc1ccc2c3c([nH]c2c1)[C@H](CO)N(C(=O)c1ccccc1)CC31CCN(C(=O)Nc2ccccc2F)CC1` [Compound 50, (R)-2′-benzoyl-N-(2-fluorophenyl)-1′-(hydroxymethyl)-7′-methoxy-1′,2′,3′,9′-tetrahydrospiro[piperidine-4,4′-pyrido[3,4-b]indole]-1-carboxamide], for which the EC50 was 1240 to 2250 nM.
For the molecule `COc1ccc2c3c([nH]c2c1)[C@H](CO)N(C(C)=O)CC31CCN(C(=O)Nc2c(F)cccc2F)CC1` [Compound 51, (R)-2′-acetyl-N-(2,6-difluorophenyl)-1′-(hydroxymethyl)-7′-methoxy-1′,2′,3′,9′-tetrahydrospiro[piperidine-4,4′-pyrido[3,4-b]indole]-1-carboxamide], the EC50 fell in the range of 177 to 235 nM.
With `COc1ccc2c3c([nH]c2c1)[C@H](CO)N(C(C)=O)CC31CCN(C(=O)Nc2cccnc2)CC1` [Compound 52, (R)-2′-acetyl-1′-(hydroxymethyl)-7′-methoxy-N-(pyridin-3-yl)-1′,2′,3′,9′-tetrahydrospiro[piperidine-4,4′-pyrido[3,4-b]indole]-1-carboxamide], the EC50 is 1450 to 1980 nM.
In the case of `COc1ccc2c3c([nH]c2c1)[C@H](CO)N(S(C)(=O)=O)CC31CCN(C(=O)Nc2ccccc2F)CC1` [Compound 53, (R)-N-(2-fluorophenyl)-1′-(hydroxymethyl)-7′-methoxy-2′-(methylsulfonyl)-1′,2′,3′,9′-tetrahydrospiro[piperidine-4,4′-pyrido[3,4-b]indole]-1-carboxamide], the EC50 lay in the range of 37 to 118 nM.
For `COc1ccc2c3c([nH]c2c1)[C@H](CO)N(C(C)=O)CC31CCN(C(=O)Nc2ccc(F)cc2F)CC1` [Compound 54, (R)-2′-acetyl-N-(2,4-difluorophenyl)-1′-(hydroxymethyl)-7′-methoxy-1′,2′,3′,9′-tetrahydrospiro[piperidine-4,4′-pyrido[3,4-b]indole]-1-carboxamide] the value was 353 to 551 nM; for `COc1ccc2c3c([nH]c2c1)[C@H](CO)N(C(C)=O)CC31CCN(C(=O)Nc2cc(F)ccc2F)CC1` [Compound 55, (R)-2′-acetyl-N-(2,5-difluorophenyl)-1′-(hydroxymethyl)-7′-methoxy-1′,2′,3′,9′-tetrahydrospiro [piperidine-4,4′-pyrido[3,4-b]indole]-1-carboxamide], 321 to 719 nM.
In the case of `CCN1CC2(CCN(C(=O)OC(C)(C)C)CC2)c2c([nH]c3cc(OC)ccc23)[C@@H]1CO[Si](C)(C)C(C)(C)C` [Compound 56, (R)-tert-butyl 1′-(((tert-butyldimethylsilyl)oxy)methyl)-2′-ethyl-7′-methoxy-1′,2′,3′,9′-tetrahydrospiro [piperidine-4,4′-pyrido[3,4-b]indole]-1-carboxylate], the EC50 is 1040 to 8770 nM.
Take `COc1ccc2c3c([nH]c2c1)[C@H](CO)N(C(C)=O)CC31CCN(C(=O)Nc2ccccc2C(F)(F)F)CC1` [Compound 57, (R)-2′-acetyl-1′-(hydroxymethyl)-7′-methoxy-N-(2-(trifluoromethyl)phenyl)-1′,2′,3′,9′-tetrahydrospiro[piperidine-4,4′-pyrido[3,4-b]indole]-1-carboxamide]: the EC50 is 577 to 1210 nM.
For the molecule `COc1ccc2c3c([nH]c2c1)[C@H](CO)N(C(C)=O)CC31CCN(C(=O)Nc2ccc(F)c(F)c2)CC1` [Compound 58, (R)-2′-acetyl-N-(3,4-difluorophenyl)-1′-(hydroxymethyl)-7′-methoxy-1′,2′,3′,9′-tetrahydrospiro[piperidine-4,4′-pyrido[3,4-b]indole]-1-carboxamide], the EC50 was 1440 to 1600 nM.
For `COc1ccc2c3c([nH]c2c1)[C@H](CO)N(C(C)=O)CC31CCN(S(=O)(=O)c2ccccc2F)CC1` [Compound 59, (R)-1-(1-((2-fluorophenyl)sulfonyl)-1′-(hydroxymethyl)-7′-methoxyspiro[piperidine-4,4′-pyrido[3,4-b]indol]-2′(1′H,3′H,9′H)-yl)ethanone] the value was 1460 to 2890 nM.
Next, `CCN1CC2(CCN(C(=O)Nc3ccccc3F)CC2)c2c([nH]c3cc(OC)ccc23)[C@@H]1CO` [Compound 60, (R)-2′-ethyl-N-(2-fluorophenyl)-1′-(hydroxymethyl)-7′-methoxy-1′,2′,3′,9′-tetrahydrospiro [piperidine-4,4′-pyrido[3,4-b]indole]-1-carboxamide]: 4610 to 5790 nM; `COc1ccc2c3c([nH]c2c1)[C@H](CO)N(C)CC31CCN(C(=O)Nc2ccccc2F)CC1` [Compound 61, (R)-N-(2-fluorophenyl)-1′-(hydroxymethyl)-7′-methoxy-2′-methyl-1′,2′,3′,9′-tetrahydrospiro[piperidine-4,4′-pyrido[3,4-b]indole]-1-carboxamide]: 3780 to 4120 nM.
For the molecule `COc1ccc2c3c([nH]c2c1)[C@H](CO)N(CC(F)(F)F)CC31CCN(C(=O)Nc2ccccc2F)CC1` [Compound 62, (R)-N-(2-fluorophenyl)-1′-(hydroxymethyl)-7′-methoxy-2′-(2,2,2-trifluoroethyl)-1′,2′,3′,9′-tetrahydrospiro[piperidine-4,4′-pyrido[3,4-b]indole]-1-carboxamide], the EC50 lay within 4490 to 9480 nM.
Turning to `COc1ccc2c3c([nH]c2c1)[C@H](CO)N(C(C)=O)CC31CCN(C(=O)N(C)c2ccccc2F)CC1` [Compound 63, (R)-2′-acetyl-N-(2-fluorophenyl)-1′-(hydroxymethyl)-7′-methoxy-N-methyl-1′,2′,3′,9′-tetrahydrospiro[piperidine-4,4′-pyrido[3,4-b]indole]-1-carboxamide], the EC50 lay within 1700 to 2920 nM.
Next, `COCCOCOC[C@H]1c2[nH]c3cc(OC)ccc3c2C2(CCN(C(=O)Nc3ccccc3F)CC2)CN1C(C)=O` [Compound 64, (R)-2′-acetyl-N-(2-fluorophenyl)-7′-methoxy-1′-(((2-methoxyethoxy)methoxy)methyl)-1′,2′,3′,9′-tetrahydrospiro[piperidine-4,4′-pyrido[3,4-b]indole]-1-carboxamide]: 3620 nM; `COc1ccc2c3c([nH]c2c1)[C@H](CN1CCOCC1)N(C(C)=O)CC31CCN(C(=O)Nc2ccccc2F)CC1` [Compound 65, (S)-2′-acetyl-N-(2-fluorophenyl)-7′-methoxy-1′-(morpholinomethyl)-1′,2′,3′,9′-tetrahydrospiro[piperidine-4,4′-pyrido[3,4-b]indole]-1-carboxamide]: 882 nM.
For `COc1ccc(COC[C@H]2c3[nH]c4cc(OC)ccc4c3C3(CCN(C(=O)Nc4ccccc4F)CC3)CN2C(C)=O)cc1` [Compound 66, (R)-2′-acetyl-N-(2-fluorophenyl)-7′-methoxy-1′-(((4-methoxybenzyl)oxy)methyl)-1′,2′,3′,9′-tetrahydrospiro[piperidine-4,4′-pyrido[3,4-b]indole]-1-carboxamide] the value was 422 nM; for `COCOC[C@H]1c2[nH]c3cc(OC)ccc3c2C2(CCN(C(=O)Nc3ccccc3F)CC2)CN1C(C)=O` [Compound 67, (R)-2′-acetyl-N-(2-fluorophenyl)-7′-methoxy-1′-((methoxymethoxy)methyl)-1′,2′,3′,9′-tetrahydrospiro [piperidine-4,4′-pyrido[3,4-b]indole]-1-carboxamide], 3040 nM.
As for `COc1ccc2c3c([nH]c2c1)[C@H](CO)N(C(C)=O)CC31CCN(C(=O)Nc2ccccn2)CC1` [Compound 68, (R)-2′-acety1-1′-(hydroxymethyl)-7′-methoxy-N-(pyridin-2-yl)-1′,2′,3′,9′-tetrahydrospiro[piperidine-4,4′-pyrido[3,4-b]indole]-1-carboxamide], the EC50 lay in the range of 918 to 2270 nM.
For the molecule `COC[C@H]1c2[nH]c3cc(OC)ccc3c2C2(CCN(C(=O)Nc3ccccc3F)CC2)CN1C(C)=O` [Compound 69, (R)-2′-acetyl-N-(2-fluorophenyl)-7′-methoxy-1′-(methoxymethyl)-1′,2′,3′,9′-tetrahydrospiro [piperidine-4,4′-pyrido[3,4-b]indole]-1-carboxamide], the EC50 was 9050 nM.
As for `COc1ccc2c3c([nH]c2c1)[C@H](CO)N(CCCc1ccccc1)CC31CCN(C(=O)Nc2ccccc2F)CC1` [Compound 71, (R)-N-(2-fluorophenyl)-1′-(hydroxymethyl)-7′-methoxy-2′-(3-phenylpropy1)-1′,2′,3′,9′-tetrahydrospiro[piperidine-4,4′-pyrido[3,4-b]indole]-1-carboxamide], the EC50 came to 7240 nM.
On to `COc1ccc2c3c([nH]c2c1)[C@H](CCO)N(C(C)=O)CC31CCN(C(=O)Nc2ccccc2F)CC1` [Compound 73, (S)-2′-acetyl-N-(2-fluorophenyl)-1′-(2-hydroxyethyl)-7′-methoxy-1′,2′,3′,9′-tetrahydrospiro [piperidine-4,4′-pyrido[3,4-b]indole]-1-carboxamide], for which the EC50 was 468 nM.
